Legend:
[1] = system: B. subtilis 168; assay: fitness (endpoint OD595 vs no drug) (fraction); higher = more growth
In short: (§1)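 Volumes were 30 µl per well, or 55 µl for S. pneumoniae, in 384-well plates inoculated at OD595 0.01. Media were TSB, LB Lennox or CY at 37 °C, and OD595 was read every 30 min for 14 h with first-reading background subtraction. Fitness is the ratio of optical density at stationary-phase entry to the robust mean of no-drug controls. That ratio is capped at 1.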

[2] = system: S. pneumoniae D39V; assay: as above
In short: as §1

[3] = system: B. subtilis 168; assay: Bliss interaction score (quartile over a dose matrix) (fitness difference); higher = more antagonism (negative = synergy)
In short: (§2)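 Growth was read as OD595 when cultures entered stationary phase, and each value was divided by the plate's robust no-drug mean and capped at 1. This normalised ratio is the fitness value, and fitness for each single drug came from the combination data. The Bliss score subtracts the expected fitness, taken as the product, from the observed fitness and is given as quartiles across technical, biological and donor/recipient replicates.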

[4] = system: S. aureus DSM 20231; assay: as above
In short: as §2

[5] = system: S. aureus Newman; assay: as above
In short: as §2

[6] = system: S. pneumoniae D39V; assay: as above
In short: as §2
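For Bliss interaction score (quartile over a dose matrix) in this document: first quartile when negative (synergy) and third quartile when positive (antagonism).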

CCC[C@@H]1C[C@@H](C(=O)N[C@@H]([C@H]2O[C@H](SC)[C@H](O)[C@@H](O)[C@H]2O)[C@H](C)Cl)N(C)C1 [Clindamycin] + C[C@H]1COc2c(N3CCN(C)CC3)c(F)cc3c(=O)c(C(=O)O)cn1c23 [Levofloxacin]
fitness, [1], one replicate
Conditions	first compound 0.0039 µg/mL	first compound 0.0078 µg/mL	first compound 0.0156 µg/mL	first compound 0.0625 µg/mL	first compound 0.125 µg/mL	first compound 0.25 µg/mL
partner 0.001 µg/mL	–	–	–	0.715	0.554	0.391
partner 0.002 µg/mL	0.97	0.86	0.833	0.558	0.442	0.338
partner 0.0039 µg/mL	0.968	0.872	0.816	0.648	0.511	0.389
partner 0.0078 µg/mL	0.967	0.854	0.815	–	–	–

Conditions	fitness
[1], first compound 0.0625 µg/mL, partner 0.0312 µg/mL	0.041
[1], first compound 0.0625 µg/mL, partner 0.0625 µg/mL	0.038
[1], first compound 0.0625 µg/mL, partner 0.125 µg/mL	0.0416
[1], first compound 0.125 µg/mL, partner 0.0312 µg/mL	0.0414
[1], first compound 0.125 µg/mL, partner 0.0625 µg/mL	0.0486
[1], first compound 0.125 µg/mL, partner 0.125 µg/mL	0.0468
[1], first compound 0.25 µg/mL, partner 0.0312 µg/mL	0.0473
[1], first compound 0.25 µg/mL, partner 0.0625 µg/mL	0.0532
[1], first compound 0.25 µg/mL, partner 0.125 µg/mL	0.0518
[2], first compound 0.0125 µg/mL, partner 0.2 µg/mL	0.759
[2], first compound 0.0125 µg/mL, partner 0.4 µg/mL	0.736
[2], first compound 0.0125 µg/mL, partner 0.8 µg/mL	0.605
[2], first compound 0.015 µg/mL, partner 0.1725 µg/mL	0.909
[2], first compound 0.015 µg/mL, partner 0.345 µg/mL	0.865
[2], first compound 0.015 µg/mL, partner 0.69 µg/mL	0.595
[2], first compound 0.025 µg/mL, partner 0.2 µg/mL	0.478
[2], first compound 0.025 µg/mL, partner 0.4 µg/mL	0.47
[2], first compound 0.025 µg/mL, partner 0.8 µg/mL	0.39
[2], first compound 0.03 µg/mL, partner 0.1725 µg/mL	0.822
[2], first compound 0.03 µg/mL, partner 0.345 µg/mL	0.759
[2], first compound 0.03 µg/mL, partner 0.69 µg/mL	0.546
[2], first compound 0.05 µg/mL, partner 0.2 µg/mL	0.235
[2], first compound 0.05 µg/mL, partner 0.4 µg/mL	0.189
[2], first compound 0.05 µg/mL, partner 0.8 µg/mL	0.15
[2], first compound 0.06 µg/mL, partner 0.1725 µg/mL	0.631
[2], first compound 0.06 µg/mL, partner 0.345 µg/mL	0.601
[2], first compound 0.06 µg/mL, partner 0.69 µg/mL	0.399

Conditions	Bliss interaction score
[3]	0.0326
[4]	0.0785
[5]	0.0891
[6]	0.0885
